The term Kd denotes the constant that tells how readily two partners part at equilibrium. Lower therefore signals a tighter complex.

The values below come from publication PMC11382315 (Heliyon, 2024).

Data set [1] addresses T1, HSP90AA1 (Homo sapiens, UniProt P07900). The experiment in a line: Limited proteolysis-mass spectrometry. The note with it: lysate of dsDNA/dsRNA-stimulated primary human thyrocytes, 0.33 nmol/μg total protein. It counts as binding.
In data set [2] the target is T1, HSP90AA1. The experiment in a line: Microscale thermophoresis. It counts as binding. For orientation: In MST a laser heats a spot of the sample, and binding alters the fluorescence response.
Data set [3] concerns primary human thyrocytes. The experiment in a line: Observed cytotoxic effects in stimulated primary human thyrocytes. The following applies: two doses: 10 and 40 μM (β-sitosterol 50 and 150 μM). It counts as cell-based.

With `O=c1cc(-c2ccc(O)c(O)c2)oc2cc(O)cc(O)c12` [luteolin], the “interaction with HSP90AA1 by Lip-MS” value in data set [1] was “identified as a common interacting protein target”. Besides, the Kd in data set [2] was 294 µM.
On to `O=c1c(O)c(-c2ccc(O)cc2O)oc2cc(O)cc(O)c12` [morin], for which the cytotoxic effects entry in data set [3] is on record as “without observed cytotoxic effects”. Besides, the “interaction with HSP90AA1 by Lip-MS” value in data set [1] is listed as “identified as a common interacting protein target”. Besides, the Kd in data set [2] was determined as 123 µM.
For `O=c1c(O)c(-c2ccc(O)cc2)oc2cc(O)cc(O)c12` [kaempferol], the cytotoxic effects result in data set [3] was “without observed cytotoxic effects”. In data set [2], this compound gave a Kd of 169 µM.
For the compound `O=c1c(O)c(-c2ccc(O)c(O)c2)oc2cc(O)cc(O)c12` [quercetin], the cytotoxic effects entry in data set [3] is “without observed cytotoxic effects”. In data set [1], the “interaction with HSP90AA1 by Lip-MS” value is “identified as a common interacting protein target”.
As to `CC[C@H](CC[C@@H](C)[C@H]1CC[C@H]2[C@@H]3CC=C4C[C@@H](O)CC[C@]4(C)[C@H]3CC[C@]12C)C(C)C` [β-sitosterol], the cytotoxic effects entry in data set [3] was “without observed cytotoxic effects”. In addition, in data set [2] (His-tag labeled HSP90AA1 50 nM, ligand 30 nM to 1 mM, PBS), the “KD (affinity with HSP90AA1)” value was “no binding affinity”.
